Laboratory results: patent US11787762B2, “Tetralin and tetrahydroquinoline compounds as inhibitors of HIF-2alpha” (ARCUS BIOSCIENCES, INC., priority 2020, dated 2023)

Molecular target: T1, HIF-2α (Homo sapiens, UniProt Q99814)
T1 construct: host or cells: 786-O cells stably transduced with Cignal Lenti HIF Luc Reporter (only the reporter was introduced, not HIF-2α)
Assay: HIF-2α luciferase reporter assay in HIF-Luc-786-O cells
Assay type: cell-based
Details: Table 3, 20 hours incubation
Protocol: Generation of HIF-2α Luciferase 786-O Cell Line:
Stable cell lines were generated by transducing 786-O cells (ATCC, CRL-1932) with Cignal Lenti HIF Luc Reporter lentivirus (CLS-007 L, Qiagen) according to the manufacturer's guidelines. In brief, 0.3×10^6 786-0 cells were transduced with lentivirus at a Multiplicity of Infection (MOI) of 25 for 24 hours. After transduction, cells were replenished with fresh RPMI 1640 Medium (Cat. No. 11875085, Thermo Fisher,) supplemented with 10% FBS (Cat. No. A3160502, Gibco), 2 mM GlutaMax (Cat. No. 35050-061, Invitrogen) and 100 units of penicillin and 100 μg of streptomycin/mL (Cat. No 15070063, Thermo Fisher) for another 24 hours. Antibiotic selection was performed in cell media containing 4 μg/mL of Puromycin. After 7 days of antibiotic selection, stable pools of surviving cells were expanded and used in a luciferase reporter assay.
HIF-2α Luciferase Reporter Assay:
On day one, 20 uL of HIF-Luc-786-0 cells in OptiMem (Cat. No. 31985088, Thermo Fisher) were seeded into each well of a 384 well white opaque plate (Corning 3570) and incubated at 37° C. and 5% CO2. Twenty microliters of 2× test compounds in OptiMem were added to cells after 4 hours of incubation. Final assay conditions comprised 20,000 cells per well in 1% DMSO with test compound concentrations ranging from 50 uM to 0 uM. After 20 hours incubation at 37° C. and 5% CO2, luciferase activity was determined using ONE-Glo Luciferase Assay Reagent (E6110, Promega) following the manufacture's recommended procedure. Briefly, 40 uL of ONE-Glo luciferase reagents were added to each well and luciferase signals were measured using an Envision 2102 Multilabel Reader. Percentage maximum activity in each test well was calculated based on DMSO (maximum activity) and no cell control wells (baseline activity). The IC50 values of the test compounds were determined from compound dose response curves fitted using a standard four parameter fit equation.

T1 sequence (Q99814 whole entry): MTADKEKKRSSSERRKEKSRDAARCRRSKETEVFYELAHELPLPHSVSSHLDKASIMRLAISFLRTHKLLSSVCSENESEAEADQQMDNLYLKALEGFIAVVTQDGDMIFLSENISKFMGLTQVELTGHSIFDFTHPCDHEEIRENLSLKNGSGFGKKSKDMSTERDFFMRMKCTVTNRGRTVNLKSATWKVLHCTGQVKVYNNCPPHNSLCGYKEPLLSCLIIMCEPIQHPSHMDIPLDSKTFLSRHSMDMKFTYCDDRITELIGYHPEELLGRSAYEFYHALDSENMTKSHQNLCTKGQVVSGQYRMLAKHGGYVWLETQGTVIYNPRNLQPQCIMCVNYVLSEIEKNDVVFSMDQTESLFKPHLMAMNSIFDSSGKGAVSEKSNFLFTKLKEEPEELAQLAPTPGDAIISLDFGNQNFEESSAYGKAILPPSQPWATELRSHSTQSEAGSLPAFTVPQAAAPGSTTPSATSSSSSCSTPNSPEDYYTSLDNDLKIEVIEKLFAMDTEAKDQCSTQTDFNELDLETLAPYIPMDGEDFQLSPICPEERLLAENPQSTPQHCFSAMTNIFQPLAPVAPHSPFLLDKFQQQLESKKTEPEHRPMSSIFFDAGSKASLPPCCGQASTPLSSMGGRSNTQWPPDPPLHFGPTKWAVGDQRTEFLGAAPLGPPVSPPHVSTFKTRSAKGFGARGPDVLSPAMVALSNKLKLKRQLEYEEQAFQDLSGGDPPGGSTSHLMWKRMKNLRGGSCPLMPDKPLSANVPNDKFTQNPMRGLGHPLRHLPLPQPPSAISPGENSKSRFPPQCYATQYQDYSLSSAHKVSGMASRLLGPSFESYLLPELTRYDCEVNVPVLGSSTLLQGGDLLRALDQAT

IC50 [nM]	SMILES
< 100	Cc1nccnc1-c1ccc([C@H]2CC[C@H](F)c3cc(F)cc(C#N)c32)c2c1[C@H](O)C(F)(F)C2 [Example 176, (5S,8R)-8-[(1S)-2,2-difluoro-1-hydroxy-7-(3-methylpyrazin-2-yl)-1,3-dihydroinden-4-yl]-3,5-difluoro-5,6,7,8-tetrahydronaphthalene-1-carbonitrile]
< 100	N#Cc1cc(F)cc2c1[C@@H](c1ccc(-c3cncnc3N)c3c1CC(F)(F)[C@H]3O)CC[C@@H]2F [Example 177, (5S,8R)-8-[(1S)-7-(4-aminopyrimidin-5-yl)-2,2-difluoro-1-hydroxy-1,3-dihydroinden-4-yl]-3,5-difluoro-5,6,7,8-tetrahydronaphthalene-1-carbonitrile]
100 to 1000	N#Cc1cc(F)cc2c1[C@@H](c1ccc(-c3cnncc3N)c3c1CC(F)(F)[C@H]3O)CC[C@@H]2F [Example 178, (5S,8R)-8-[(1S)-7-(5-aminopyridazin-4-yl)-2,2-difluoro-1-hydroxy-1,3-dihydroinden-4-yl]-3,5-difluoro-5,6,7,8-tetrahydronaphthalene-1-carbonitrile]
< 100	Cc1nc(N)cnc1-c1ccc([C@H]2CC[C@H](F)c3cc(F)cc(C#N)c32)c2c1[C@H](O)C(F)(F)C2 [Example 179, (5S,8R)-8-[(1S)-7-(5-amino-3-methylpyrazin-2-yl)-2,2-difluoro-1-hydroxy-1,3-dihydroinden-4-yl]-3,5-difluoro-5,6,7,8-tetrahydronaphthalene-1-carbonitrile]
< 100	N#Cc1cc(F)cc2c1[C@@H](c1ccc(-c3cnc(C(N)=O)s3)c3c1CC(F)(F)[C@H]3O)CC[C@@H]2F [Example 180, 5-[(3S)-7-[(1R,4S)-8-cyano-4,6-difluoro-1,2,3,4-tetrahydronaphthalen-1-yl]-2,2-difluoro-3-hydroxy-1,3-dihydroinden-4-yl]-1,3-thiazole-2-carboxamide]
100 to 1000	N#Cc1cc(F)cc2c1[C@@H](c1ccc(-c3ncncc3N)c3c1CC(F)(F)[C@H]3O)CC[C@@H]2F [Example 181, (5S,8R)-8-[(1S)-7-(5-aminopyrimidin-4-yl)-2,2-difluoro-1-hydroxy-1,3-dihydroinden-4-yl]-3,5-difluoro-5,6,7,8-tetrahydronaphthalene-1-carbonitrile]
100 to 1000	Cn1cnc(-c2ccc([C@H]3CC[C@H](F)c4cc(F)cc(C#N)c43)c3c2[C@H](O)C(F)(F)C3)n1 [Example 182, (5S,8R)-8-[(1S)-2,2-difluoro-1-hydroxy-7-(1-methyl-1,2,4-triazol-3-yl)-1,3-dihydroinden-4-yl]-3,5-difluoro-5,6,7,8-tetrahydronaphthalene-1-carbonitrile]
100 to 1000	Cc1c(-c2ccc([C@H]3CC[C@H](F)c4cc(F)cc(C#N)c43)c3c2[C@H](O)C(F)(F)C3)nnn1C [Example 183, (5S,8R)-8-[(1S)-7-(1,5-dimethyltriazol-4-yl)-2,2-difluoro-1-hydroxy-1,3-dihydroinden-4-yl]-3,5-difluoro-5,6,7,8-tetrahydronaphthalene-1-carbonitrile]
< 100	N#Cc1cc(F)cc2c1[C@@H](c1ccc(-c3cccnc3C#N)c3c1CC(F)(F)[C@H]3O)CC[C@@H]2F [Example 184, 3-[(3S)-7-[(1R,4S)-8-cyano-4,6-difluoro-1,2,3,4-tetrahydronaphthalen-1-yl]-2,2-difluoro-3-hydroxy-1,3-dihydroinden-4-yl]pyridine-2-carbonitrile]
< 100	Cc1ccc(-c2ccc([C@H]3CC[C@H](F)c4cc(F)cc(C#N)c43)c3c2[C@H](O)C(F)(F)C3)c(N)n1 [Example 185, (5S,8R)-8-[(1S)-7-(2-amino-6-methylpyridin-3-yl)-2,2-difluoro-1-hydroxy-1,3-dihydroinden-4-yl]-3,5-difluoro-5,6,7,8-tetrahydronaphthalene-1-carbonitrile]
< 100	N#Cc1cc(F)cc2c1[C@@H](c1ccc(-c3nccnc3N)c3c1CC(F)(F)[C@H]3O)CC[C@@H]2F [Example 186, (5S,8R)-8-[(1S)-7-(3-aminopyrazin-2-yl)-2,2-difluoro-1-hydroxy-1,3-dihydroinden-4-yl]-3,5-difluoro-5,6,7,8-tetrahydronaphthalene-1-carbonitrile]
< 100	N#Cc1cc(F)cc2c1[C@@H](c1ccc(-c3cccc4cn[nH]c34)c3c1CC(F)(F)[C@H]3O)CC[C@@H]2F [Example 187, (5S,8R)-8-[(1S)-2,2-difluoro-1-hydroxy-7-(1H-indazol-7-yl)-1,3-dihydroinden-4-yl]-3,5-difluoro-5,6,7,8-tetrahydronaphthalene-1-carbonitrile]
100 to 1000	Cc1nc(N)sc1-c1ccc([C@H]2CC[C@H](F)c3cc(F)cc(C#N)c32)c2c1[C@H](O)C(F)(F)C2 [Example 188, (5S,8R)-8-[(1S)-7-(2-amino-4-methyl-1,3-thiazol-5-yl)-2,2-difluoro-1-hydroxy-1,3-dihydroinden-4-yl]-3,5-difluoro-5,6,7,8-tetrahydronaphthalene-1-carbonitrile]
< 100	N#Cc1cc(F)cc2c1[C@@H](c1ccc(-c3cccc4ncsc34)c3c1CC(F)(F)[C@H]3O)CC[C@@H]2F [Example 189, (5S,8R)-8-[(1S)-7-(1,3-benzothiazol-7-yl)-2,2-difluoro-1-hydroxy-1,3-dihydroinden-4-yl]-3,5-difluoro-5,6,7,8-tetrahydronaphthalene-1-carbonitrile]
100 to 1000	N#Cc1cc(F)cc2c1[C@@H](c1ccc(-c3cccc4scnc34)c3c1CC(F)(F)[C@H]3O)CC[C@@H]2F [Example 190, (5S,8R)-8-[(1S)-7-(1,3-benzothiazol-4-yl)-2,2-difluoro-1-hydroxy-1,3-dihydroinden-4-yl]-3,5-difluoro-5,6,7,8-tetrahydronaphthalene-1-carbonitrile]
< 100	N#Cc1cc(F)cc2c1[C@@H](c1ccc(-c3scnc3CO)c3c1CC(F)(F)[C@H]3O)CC[C@@H]2F [Example 191, (5S,8R)-8-[(1S)-2,2-difluoro-1-hydroxy-7-[4-(hydroxymethyl)-1,3-thiazol-5-yl]-1,3-dihydroinden-4-yl]-3,5-difluoro-5,6,7,8-tetrahydronaphthalene-1-carbonitrile]
< 100	Cc1scnc1-c1ccc([C@H]2CC[C@H](F)c3cc(F)cc(C#N)c32)c2c1[C@H](O)C(F)(F)C2 [Example 192, (5S,8R)-8-[(1S)-2,2-difluoro-1-hydroxy-7-(5-methyl-1,3-thiazol-4-yl)-1,3-dihydroinden-4-yl]-3,5-difluoro-5,6,7,8-tetrahydronaphthalene-1-carbonitrile]
< 100	Cc1nc(C)c(-c2ccc([C@H]3CC[C@H](F)c4cc(F)cc(C#N)c43)c3c2[C@H](O)C(F)(F)C3)s1 [Example 193, (5S,8R)-8-[(1S)-7-(2,4-dimethyl-1,3-thiazol-5-yl)-2,2-difluoro-1-hydroxy-1,3-dihydroinden-4-yl]-3,5-difluoro-5,6,7,8-tetrahydronaphthalene-1-carbonitrile]
< 100	N#Cc1cc(F)cc2c1[C@@H](c1ccc(-c3ccc(F)cc3N)c3c1CC(F)(F)[C@H]3O)CC[C@@H]2F [Example 194, (5S,8R)-8-[(1S)-7-(2-amino-4-fluorophenyl)-2,2-difluoro-1-hydroxy-1,3-dihydroinden-4-yl]-3,5-difluoro-5,6,7,8-tetrahydronaphthalene-1-carbonitrile]
< 100	Cc1ccc(-c2ccc([C@H]3CC[C@H](F)c4cc(F)cc(C#N)c43)c3c2[C@H](O)C(F)(F)C3)c(N)c1 [Example 195, (5S,8R)-8-[(1S)-7-(2-amino-4-methylphenyl)-2,2-difluoro-1-hydroxy-1,3-dihydroinden-4-yl]-3,5-difluoro-5,6,7,8-tetrahydronaphthalene-1-carbonitrile]
< 100	N#Cc1cc(F)cc2c1[C@@H](c1ccc(-c3c(N)cccc3F)c3c1CC(F)(F)[C@H]3O)CC[C@@H]2F [Example 196, (5S,8R)-8-[(1S)-7-(2-amino-6-fluorophenyl)-2,2-difluoro-1-hydroxy-1,3-dihydroinden-4-yl]-3,5-difluoro-5,6,7,8-tetrahydronaphthalene-1-carbonitrile]
< 100	N#Cc1ccc(-c2ccc([C@H]3CC[C@H](F)c4cc(F)cc(C#N)c43)c3c2[C@H](O)C(F)(F)C3)c(N)c1 [Example 197, (5S,8R)-8-[(1S)-7-(2-amino-4-cyanophenyl)-2,2-difluoro-1-hydroxy-1,3-dihydroinden-4-yl]-3,5-difluoro-5,6,7,8-tetrahydronaphthalene-1-carbonitrile]
100 to 1000	Cc1nc(S(C)(=O)=O)ccc1-c1ccc([C@H]2CC[C@H](F)c3cc(F)cc(C#N)c32)c2c1[C@H](O)C(F)(F)C2 [Example 198, (5S,8R)-8-[(1S)-2,2-difluoro-1-hydroxy-7-(2-methyl-6-methylsulfonylpyridin-3-yl)-1,3-dihydroinden-4-yl]-3,5-difluoro-5,6,7,8-tetrahydronaphthalene-1-carbonitrile]
